These results are taken from article PMC10232738, “Five blueberry anthocyanins and their antioxidant, hypoglycemic, and hypolipidemic effects in vitro” (Frontiers in Nutrition, 2023).

Marks after values point to notes of the source that are not given here.

The nature of experiment [1]: Oxygen radical absorbance capacity (ORAC) assay. The note with it: Trolox equivalents, pH 7.4, mean ± SD (n = 3). As for the experimental part: The oxygen radical absorbance capacity (ORAC) assay was performed according to the reported method with slight modifications ([11]). The assay was carried out in black-walled 96-well plates. Tested compounds were dissolved in 75 mM phosphate buffer (pH 7.4). […] A blank sample containing 20 μl of phosphate buffer in the reaction mix was prepared and measured. The area under the curve (AUC) was calculated for each sample by integrating the relative fluorescence curve. The net AUC of the sample was calculated by subtracting the AUC of the blank. The regression equation between net AUC and series concentration of Trolox was determined to establish a standard curve, and ORAC values were expressed as μmol Trolox equivalents/μmol samples using the standard curve established previously. All samples were analyzed in triplicate.

In a further experiment the target is α-glucosidase. In words: α-glucosidase inhibitory activity assay (p-NPG substrate). As to conditions: pH 6.9, 37°C, mean ± SD (n = 3). The experiment is classed as biochemical, Saccharomyces cerevisiae. The source says:
Acetonitrile, methanol, and formic acid (HPLC grade) were obtained from Tedia Co. Inc. (Fairfield, OH, USA). Ethanol and phosphoric acid were purchased from Sinopharm Chemical Reagent Co. Ltd. (Shanghai, China). Folin-Ciocalteu's phenol reagent, 2,2-diphenyl-1-picrylhydrazyl (DPPH), 2,2′-azinobis-3-ethylbenzothiazoline-6-sulfonic acid (ABTS), α-glucosidase (from Saccharomyces cerevisiae), 4-nitrophenyl-α-D-glucose (p-NPG), and 6-hydroxy-2,5,7,8-tetramethylchroman-2-carboxylic acid (Trolox) were obtained from Sigma-Aldrich (St. Louis, MO, USA). Sodium fluorescein, 2,2′-azobis-2-amidino-propane (AAPH), metformin (Met), oleic acid (OA), and 2-[N-(7-Nitrobenz-2-oxa-1,3-diazol-4-yl)amino]-2-deoxy-D-glucose (2-NDBG) were obtained from Aladdin (Shanghai, China). The assay kits of triglycerides (TG), total cholesterol (TC), and oil-red-O staining were obtained from Jiancheng Bioengineering Institute (Nanjing, China). The BCA assay kit was obtained from Biosharp (Hefei, China). Dulbecco's modified Eagle's medium (DMEM), penicillin-streptomycin, and fetal bovine serum (FBS) were purchased from Invitrogen-Gibco (Grand Island, NY). The chemicals and reagents used in this study were all of pure analytical grade.
The α-glucosidase inhibitory activity was determined as previous methods with slight modifications ([12]). In short, the diluted sample working solution (1 μl) was added to 3 μl of α-glucosidase (0.5 U/ml in 0.1 M sodium phosphate buffer, pH 6.9) and 156 μl of 0.1 M sodium phosphate buffer (pH 6.9). Then, the mixture was incubated at 37°C for 20 min, and 40 μl of 1.5 mM p-NPG (dissolved in 100 mM sodium phosphate buffer, pH 6.9) was added and incubated for 20 min. Absorbance was measured by a microplate reader (Molecular Device, Sunnyvale, CA, USA). A complete reaction mixture without a sample was used as the control. Three parallel operations were performed. All the samples were analyzed in triplicate at five different concentrations around the IC50 values.

A short description of experiment [2]: ABTS radical cation scavenging assay. The note with it: 6 min, 734 nm, mean ± SD (n = 3). The procedure: The ABTS assay was performed as the reported method ([10]). Briefly, ABTS^+ radical cation was prepared by mixing a 7 mM aqueous stock solution of ABTS^+ and 2.6 mM potassium peroxydisulfate. The reaction mixture was stored in the dark at room temperature for 12 h prior to use. […] Then, 50 μl of the test solution was added to 200 μl of the ABTS^+ radical cation solution. […] A blank sample containing ABTS^+ solution was measured.

Experiment [3] in a line: DPPH radical scavenging assay. As to conditions: 30 min, 517 nm, mean ± SD (n = 3). As for the experimental part: DPPH assay was determined according to the reported method ([10]). The tested compounds were dissolved in ethanol and diluted to a series of concentrations to be used as test solutions. A total of 100 μl 0.16 mmol/L DPPH in methanol (5 mg/100 ml) was mixed with 100 μl of the test solution. […] A blank sample containing 100 μl of methanol in the DPPH solution was measured. The same procedure was followed for the positive control, ascorbic acid. All samples were analyzed in triplicate at five different concentrations around the EC50 values.
(In general: Loss of DPPH colour is used to gauge radical scavenging.)

Experiment [4] concerns HepG2 cells. Kind of experiment: 2-NBDG glucose uptake in HG-OA stimulated HepG2 cells. The class given is cell-based, Human. As to conditions: 12 h, HG-OA (36 mM glucose, 0.25 mM OA) treated HepG2, p < 0.001 vs model. The procedure:
(§1) HepG2 cells were starved in DMEM with 2% FBS for 9 h. To establish an in vitro model of diabesity, cells were stimulated with high glucose (36 mM glucose) and 0.25 mM OA for 12 h according to our previous study ([14]). Then, BB1-BB5 (50 and 100 μM) and Met (100 μM) were added for another 12 h. OA or BB1-BB5 was dissolved in DMSO and added to HepG2 cells in DMEM, and the final DMSO concentration received by the cells was 0.1% (v/v).
After the model was established, HepG2 cells were treated with BB1-BB5 (50 and 100 μM in low and high doses, respectively) for 12 h. 2-NBDG, a fluorescent deoxyglucose, was added to measure glucose uptake ([15]). The culture solution was discarded, and 2-NBDG (100 μM, diluted in DMEM without serum) was added and incubated again for 40 min. […] In total, eight parallels were set up for each sample.

Experiment [5] relates to HepG2 cells. In words: Intracellular total cholesterol (TC) in HG-OA stimulated HepG2 cells. The class given is cell-based, Human. The note with it: 12 h, HG-OA treated HepG2, vs model group. As for the experimental part:
as §1
After the model was established, HepG2 cells were treated with BB1–BB5 (50 and 100 μM in low and high doses, respectively) in 6-well plates for 12 h. The culture solution was discarded, and 200 μl of RIPA lysis buffer was added after three washes with PBS and placed on a shaker for 10 min. The cell contents were homogenized and centrifuged (4°C, 10,000 rpm) to extract the supernatant. The TC and TG level in HepG2 cells were tested using the commercial kit by glycerol phosphate oxidase (GPO)-peroxidase (PAP) method based on several enzyme-driven reactions. The end product, hydrogen peroxide, which can be oxidatively coupled with 4-aminoantipyrine and phenol in the presence of peroxidase to yield a chromogen, was measured at 500 nm ([16]). In total, eight replicates were set for each sample.

Turning to `OCC1OC(Oc2cc3c(O)cc(O)cc3[o+]c2-c2cc(O)c(O)c(O)c2)C(O)C(O)C1O` (centres unmarked) [BB1, delphinidin-3-O-galactoside], the ORAC in experiment [1] was 13.23 ± 0.03^a μmol Trolox/μmol. Further, the IC50 (commonly the concentration at which inhibition is half-maximal) on α-glucosidase was 68.3 ± 12.4 µM. The values for the EC50 in experiment [2] and in experiment [3] were 19 ± 0.2 µM and 39.91 ± 0.24 µM, respectively.

For `OC[C@H]1O[C@@H](Oc2cc3c(O)cc(O)cc3[o+]c2-c2cc(O)c(O)c(O)c2)[C@H](O)[C@@H](O)[C@@H]1O` [BB2, delphinidin-3-O-glucoside], in experiment [1], the ORAC is reported as 9.44 ± 0.12^d μmol Trolox/μmol. The molecule also returned an IC50 on α-glucosidase of 240 ± 9.2 µM. In addition, the EC50 (in general, the concentration giving half of the maximal effect) in experiment [2] was found to be 20.7 ± 0.67 µM; in experiment [3], 61.4 ± 2.29 µM. Further, in the experiment with HepG2 cells [4] (100 μM), the “Glucose uptake capacity (2-NBDG fluorescence)” value (from here on “Glucose uptake capacity”) is reported as “significant increase”.

Consider `COc1cc(-c2[o+]c3cc(O)cc(O)c3cc2OC2OC(CO)C(O)C(O)C2O)cc(O)c1O` (centres unmarked) [BB3, petunidin-3-O-galactoside], for which, in experiment [1], the ORAC was 11.31 ± 0.22^c μmol Trolox/μmol. The “Intracellular TC levels” value in the experiment with HepG2 cells [5] (100 μM) is listed as “noticeably reduced”. For the same molecule, inhibition on α-glucosidase was half-maximal at 68.5 ± 20.9 µM (IC50). In addition, the EC50 in experiment [2] was found to be 24.2 ± 1.88 µM; in experiment [3], 63.2 ± 2 µM. Further, the “Glucose uptake capacity” value with HepG2 cells [4] (50 μM) and with HepG2 cells [4] (100 μM) was “significant increase” throughout.

For the molecule `COc1cc(-c2[o+]c3cc(O)cc(O)c3cc2O[C@@H]2O[C@H](CO)[C@@H](O)[C@H](O)[C@H]2O)cc(O)c1O` [BB4, petunidin-3-O-glucoside], in experiment [1], the ORAC is reported as 11.02 ± 0.16^c μmol Trolox/μmol. In addition, the “Intracellular TC levels” value with HepG2 cells [5] (50 μM) and in the experiment with HepG2 cells [5] (100 μM) was “noticeably reduced” each time. At α-glucosidase, this molecule yielded an IC50 of 218 ± 22.7 µM. The EC50 came to 39.3 ± 1.55 µM in experiment [2] and 62.11 ± 0.27 µM in experiment [3]. For the same molecule, the “Glucose uptake capacity” value in the experiment on HepG2 cells [4] (100 μM) is on record as “significant increase”.

As for `COc1cc(-c2[o+]c3cc(O)cc(O)c3cc2OC2OC(CO)C(O)C(O)C2O)cc(OC)c1O` (centres unmarked) [BB5, malvidin-3-O-galactoside], in experiment [1], the ORAC was 11.89 ± 0.13^b μmol Trolox/μmol. In addition, in the experiment with HepG2 cells [5] (100 μM), the “Intracellular TC levels” value is “noticeably reduced”. Also, the IC50 against α-glucosidase is 185 ± 10.9 µM. The values for the EC50 in experiment [2] and in experiment [3] were 14.3 ± 1 µM and 38.8 ± 3.33 µM, respectively. Also, the “Glucose uptake capacity” value with HepG2 cells [4] (50 μM) and in the experiment on HepG2 cells [4] (100 μM) was “significant increase” throughout.

Regarding `O=C1O[C@H]([C@@H](O)CO)C(O)=C1O` [ascorbic acid, reference compound], the EC50 turned out to be 44.5 ± 0.55 µM in experiment [2] and 112 ± 15.3 µM in experiment [3].
